Results published in US10738028B2, “Spiro three-membered ring, spiro five-membered ring peptide deformylase inhibitor and use thereof in antibacteria and anti-tumor” (priority 2016, dated 2020).

Assays:
Format in all cases: cell-based
[1] = tested on: Enterococcus faecalis (EFA); assay: MIC, two-fold agar dilution (CLSI), clinical isolates
Procedure, shortened: (§1)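 Following the American Clinical and Laboratory Standards Institute procedure, agar two-fold dilution served to determine minimum inhibitory concentrations.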

[2] = tested on: Enterococcus faecium (EFM); assay: as above
Procedure, shortened: as §1

[3] = tested on: Escherichia coli (including ESBLs, non-ESBLs); assay: as above
Procedure, shortened: as §1

[4] = tested on: Moraxella catarrhalis (BCA); assay: as above
Procedure, shortened: as §1

[5] = tested on: Streptococcus pneoumoniae (SPN); assay: as above
Procedure, shortened: as §1

[6] = tested on: methicillin-resistant Staphylococcus aureus (MRSA); assay: as above
Procedure, shortened: as §1

[7] = tested on: methicillin-resistant Staphylococcus epidermidis (MRSE); assay: as above
Procedure, shortened: as §1

[8] = tested on: methicillin-sensitive Staphylococcus aureus (MSSA); assay: as above
Procedure, shortened: as §1

[9] = tested on: methicillin-sensitive Staphylococcus epidermidis (MSSE); assay: as above
Procedure, shortened: as §1

[10] = tested on: HCT-116 colorectal cancer cell line; assay: CCK-8 proliferation inhibition; details: Homo sapiens, HCT-116, 72 h, concentration of 30 μM; 72 hours; CCK-8; read-out: HCT116 inhibition rate/%
Procedure, shortened: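 Growth inhibition is read by CCK-8 (1:10 dilution) after 72 h of compound exposure. HCT-116 cells grow in McCoy's 5A containing 10% newborn bovine serum at 2000 cells/well, with 1‰ DMSO as vehicle control.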

In the case of `CCCC[C@H](CC(=O)NO)C(=O)N1CC2(CC2)C[C@H]1C(=O)Nc1cc(C)on1` [Example 56, (S)-5-((R)-2-(2-(hydroxyamino)-2-oxoethyl)hexanoyl)-N-(5-methylisoxazol-3-yl)-5-spiro[2.4]heptane-6-carboxamide], the Anti-bacterial activity (MIC), strain EFA 15-1 ([1]; clinical isolate EFA 15-1) is reported as 16 mg/L, the Anti-bacterial activity (MIC), strain EFA 15-2 ([1]; clinical isolate EFA 15-2) is reported as 16 mg/L and the Anti-bacterial activity (MIC), strain EFA 15-3 ([1]; clinical isolate EFA 15-3) is reported as 16 mg/L. The Anti-bacterial activity (MIC), strain EFA 15-4 ([1]; clinical isolate EFA 15-4) was 16 mg/L, the Anti-bacterial activity (MIC), strain EFA 15-5 ([1]; clinical isolate EFA 15-5) was 16 mg/L and the Anti-bacterial activity (MIC), strain EFA 15-6 ([1]; clinical isolate EFA 15-6) was 16 mg/L. The Anti-bacterial activity (MIC), strain EFA 15-9 ([1]; clinical isolate EFA 15-9) was 16 mg/L, the Anti-bacterial activity (MIC), strain EFM 15-1 ([2]; clinical isolate EFM 15-1) was 1 mg/L and the Anti-bacterial activity (MIC), strain EFM 15-2 ([2]; clinical isolate EFM 15-2) was 4 mg/L. For the same compound, the Anti-bacterial activity (MIC), strain EFM 15-3 ([2]; clinical isolate EFM 15-3) was 1 mg/L, the Anti-bacterial activity (MIC), strain EFM 15-4 ([2]; clinical isolate EFM 15-4) was 4 mg/L and the Anti-bacterial activity (MIC), strain EFM 15-5 ([2]; clinical isolate EFM 15-5) was 1 mg/L. For the same compound, the Anti-bacterial activity (MIC), strain EFM 15-6 ([2]; clinical isolate EFM 15-6) was 4 mg/L, the Anti-bacterial activity (MIC), strain ECO+ 15-1 ([3]; clinical isolate ECO+ 15-1) was greater than 16 mg/L and the Anti-bacterial activity (MIC), strain ECO+ 15-2 ([3]; clinical isolate ECO+ 15-2) was greater than 16 mg/L. It also gave an Anti-bacterial activity (MIC), strain ECO+ 15-3 ([3]; clinical isolate ECO+ 15-3) greater than 16 mg/L, an Anti-bacterial activity (MIC), strain ECO+ 15-4 ([3]; clinical isolate ECO+ 15-4) greater than 16 mg/L and an Anti-bacterial activity (MIC), strain ECO− 15-1 ([3]; clinical isolate ECO− 15-1) greater than 16 mg/L. For the same compound, the Anti-bacterial activity (MIC), strain ECO− 15-2 ([3]; clinical isolate ECO− 15-2) was greater than 16 mg/L, the Anti-bacterial activity (MIC), strain ECO− 15-3 ([3]; clinical isolate ECO− 15-3) was greater than 16 mg/L and the Anti-bacterial activity (MIC), strain ECO− 15-4 ([3]; clinical isolate ECO− 15-4) was greater than 16 mg/L. For the same compound, the Anti-bacterial activity (MIC), strain BCA 14-1 ([4]; clinical isolate BCA 14-1) was 4 mg/L, the Anti-bacterial activity (MIC), strain BCA 14-4 ([4]; clinical isolate BCA 14-4) was 4 mg/L and the Anti-bacterial activity (MIC), strain BCA 14-5 ([4]; clinical isolate BCA 14-5) was 1 mg/L. It also gave an Anti-bacterial activity (MIC), strain BCA 14-6 ([4]; clinical isolate BCA 14-6) of 8 mg/L, an Anti-bacterial activity (MIC), strain BCA 14-7 ([4]; clinical isolate BCA 14-7) of 2 mg/L and an Anti-bacterial activity (MIC), strain BCA 14-8 ([4]; clinical isolate BCA 14-8) of 2 mg/L. The Anti-bacterial activity (MIC), strain BCA 14-10 ([4]; clinical isolate BCA 14-10) was 2 mg/L, the Anti-bacterial activity (MIC), strain SPN 16-2 ([5]; clinical isolate SPN 16-2) was 8 mg/L and the Anti-bacterial activity (MIC), strain SPN 16-4 ([5]; clinical isolate SPN 16-4) was 1 mg/L. It also gave an Anti-bacterial activity (MIC), strain MRSA 15-1 ([6]; clinical isolate MRSA 15-1) of 0.25 mg/L, an Anti-bacterial activity (MIC), strain MRSA 15-2 ([6]; clinical isolate MRSA 15-2) of 2 mg/L and an Anti-bacterial activity (MIC), strain MRSA 15-3 ([6]; clinical isolate MRSA 15-3) of 0.5 mg/L. The Anti-bacterial activity (MIC), strain MRSA 15-4 ([6]; clinical isolate MRSA 15-4) was 2 mg/L, the Anti-bacterial activity (MIC), strain MRSE 15-1 ([7]; clinical isolate MRSE 15-1) was 0.125 mg/L and the Anti-bacterial activity (MIC), strain MRSE 15-2 ([7]; clinical isolate MRSE 15-2) was 2 mg/L. For the same compound, the Anti-bacterial activity (MIC), strain MRSE 15-3 ([7]; clinical isolate MRSE 15-3) was 0.25 mg/L, the Anti-bacterial activity (MIC), strain MRSE 15-7 ([7]; clinical isolate MRSE 15-7) was 0.5 mg/L and the Anti-bacterial activity (MIC), strain MSSA 15-3 ([8]; clinical isolate MSSA 15-3) was 0.25 mg/L. For the same compound, the Anti-bacterial activity (MIC), strain MSSA 15-4 ([8]; clinical isolate MSSA 15-4) was 0.25 mg/L, the Anti-bacterial activity (MIC), strain MSSA 15-5 ([8]; clinical isolate MSSA 15-5) was 0.125 mg/L and the Anti-bacterial activity (MIC), strain MSSA 15-6 ([8]; clinical isolate MSSA 15-6) was 0.25 mg/L. For the same compound, the Anti-bacterial activity (MIC), strain MSSE 15-3 ([9]; clinical isolate MSSE 15-3) was 0.25 mg/L, the Anti-bacterial activity (MIC), strain MSSE 15-4 ([9]; clinical isolate MSSE 15-4) was 0.06 mg/L and the Anti-bacterial activity (MIC), strain MSSE 15-5 ([9]; clinical isolate MSSE 15-5) was 0.06 mg/L. For the same compound, the Anti-bacterial activity (MIC), strain MSSE 15-6 ([9]; clinical isolate MSSE 15-6) was 0.06 mg/L and the inhibition at 30 µM [10] was 10%.
